In ChEMBL document CHEMBL1201862, “PubChem BioAssay data set” (2004):
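These data come from cells grown in 96-well plates and exposed to compound for 48 hours at five concentrations. GI50 marks 50% less growth.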 Activity calls are given as the source filed them. Cut-off read from the data, not from the text of the source: active = GI50 up to about 1.1 µM and inactive = higher.

Legend:
Test in all cases: DTP human tumour cell line panel, 48 h
HCT-116 = tested on: HCT-116
SK-MEL-2 = tested on: SK-MEL-2
Hs-578T = tested on: Hs-578T
HCC 2998 = tested on: HCC 2998
HT-29 = tested on: HT-29
IGROV-1 = tested on: IGROV-1
NCI-H522 = tested on: NCI-H522
SK-MEL-5 = tested on: SK-MEL-5
NCI-H460 = tested on: NCI-H460
HL-60 = tested on: HL-60
CAKI-1 = tested on: CAKI-1
UO-31 = tested on: UO-31
OVCAR-3 = tested on: OVCAR-3
Malme-3M = tested on: Malme-3M
KM12 = tested on: KM12
A549 = tested on: A549
OVCAR-4 = tested on: OVCAR-4
MOLT-4 = tested on: MOLT-4

Measured: GI50

CN(C)CCCNC(=O)CNC(=O)c1cc(NC(=O)c2cc(NC(=O)c3cc(NC(=O)CCNC(=O)c4cc(NC(=O)c5cc(NC(=O)c6nccn6C)cn5C)cn4C)cn3C)cn2C)cn1C
inactive: HCT-116 > 100 µM | SK-MEL-2 > 100 µM | Hs-578T > 100 µM | HCC 2998 > 100 µM | HT-29 > 100 µM | IGROV-1 > 100 µM | NCI-H522 > 100 µM | SK-MEL-5 > 100 µM | NCI-H460 > 100 µM | HL-60 43 µM | CAKI-1 > 100 µM | UO-31 > 100 µM | OVCAR-3 > 100 µM | Malme-3M > 100 µM | KM12 64.6 µM | A549 > 100 µM | OVCAR-4 > 100 µM | MOLT-4 20.8 µM

N=C/N=C/C(=S)O[C@@H]1C(=O)N2CCC[C@@]23CCCC[C@@H]13
inactive: HCT-116 > 12.5 µM | SK-MEL-2 > 12.5 µM | Hs-578T > 12.5 µM | HCC 2998 > 12.5 µM | HT-29 > 12.5 µM | IGROV-1 > 12.5 µM | NCI-H522 > 12.5 µM | SK-MEL-5 > 12.5 µM | NCI-H460 > 12.5 µM | HL-60 > 12.5 µM | CAKI-1 > 12.5 µM | UO-31 > 12.5 µM | Malme-3M > 12.5 µM | KM12 > 12.5 µM | A549 > 12.5 µM | OVCAR-4 > 12.5 µM

O=C1/C(=C/c2cc(O)c(O)c(O)c2)Oc2cc(O)cc(OC3OC(CO)C(O)C(O)C3O)c21 (stereo unspecified)
inactive: HCT-116 16.3 µM | SK-MEL-2 16.2 µM | HCC 2998 39.2 µM | HT-29 23.9 µM | IGROV-1 36.2 µM | SK-MEL-5 13.3 µM | NCI-H460 13.9 µM | HL-60 15.6 µM | UO-31 32.4 µM | OVCAR-3 14.9 µM | KM12 29.6 µM | A549 32.4 µM | OVCAR-4 2.06 µM | MOLT-4 19.1 µM

COc1cc2c(cc1OC)C1C=NC(C(=O)O)(C2)c2ccccc21 (stereo unspecified)
inactive: HCT-116 > 100 µM | HCC 2998 > 10 µM | HT-29 > 100 µM | IGROV-1 > 100 µM | NCI-H522 > 100 µM | SK-MEL-5 > 100 µM | NCI-H460 > 100 µM | HL-60 26.4 µM | CAKI-1 > 100 µM | UO-31 > 10 µM | OVCAR-3 > 100 µM | Malme-3M > 100 µM | KM12 > 100 µM | A549 > 100 µM | OVCAR-4 > 100 µM | MOLT-4 > 100 µM

C=CCc1cc(-c2cc(CC=C)c(O)c(CNCCCl)c2)cc(CNCCCl)c1O
inactive: HCT-116 19.4 µM | SK-MEL-2 19.2 µM | HCC 2998 17.3 µM | HT-29 17.4 µM | IGROV-1 23.6 µM | NCI-H522 16.9 µM | SK-MEL-5 15.3 µM | NCI-H460 16.8 µM | HL-60 17.3 µM | UO-31 14.5 µM | OVCAR-3 21.4 µM | Malme-3M 22.2 µM | KM12 17.3 µM | A549 24.3 µM | OVCAR-4 22.9 µM | MOLT-4 16.9 µM

CN(C)c1ccc(C=C2C(=O)N(c3ccccc3)N(c3ccccc3)C2=O)cc1
inactive: HCT-116 > 100 µM | SK-MEL-2 > 100 µM | Hs-578T 60.8 µM | HT-29 72.8 µM | IGROV-1 > 100 µM | NCI-H522 > 100 µM | SK-MEL-5 > 100 µM | UO-31 > 100 µM | OVCAR-3 > 100 µM | Malme-3M > 100 µM | KM12 74.8 µM | A549 78.9 µM | MOLT-4 65.6 µM

COC(=O)C1Cc2c([nH]c3ccccc23)C(C2CCCCC2)N1 (stereo unspecified)
inactive: HCT-116 > 100 µM | SK-MEL-2 > 100 µM | HCC 2998 > 100 µM | HT-29 > 100 µM | IGROV-1 83.9 µM | NCI-H522 > 100 µM | SK-MEL-5 52.7 µM | NCI-H460 > 100 µM | HL-60 > 100 µM | CAKI-1 > 100 µM | UO-31 > 100 µM | OVCAR-3 > 100 µM | Malme-3M > 100 µM | KM12 > 100 µM | A549 > 100 µM | OVCAR-4 > 100 µM | MOLT-4 > 100 µM

Cc1cn(C2CC(COCc3ccccc3)N(CCO[Si](C)(C)C(C)(C)C)O2)c(=O)[nH]c1=O (stereo unspecified)
inactive: HCT-116 16.8 µM | SK-MEL-2 16.4 µM | HT-29 15.4 µM | NCI-H522 16.2 µM | SK-MEL-5 2.88 µM | NCI-H460 18.5 µM | CAKI-1 18.5 µM | UO-31 13.8 µM | OVCAR-3 15 µM | Malme-3M 18.2 µM | KM12 17.3 µM | A549 15.1 µM | OVCAR-4 17.9 µM | MOLT-4 5.93 µM

CC(=O)OC1CC2C(C)(C)C(=O)C=C[C@]2(C)C2CCC3(C)C(c4ccoc4)[C@@H](O)[C@H]4O[C@]43[C@]12C (stereo partly specified)
inactive: HCT-116 24.9 µM | SK-MEL-2 18.9 µM | HCC 2998 16.1 µM | HT-29 21.7 µM | IGROV-1 24 µM | NCI-H522 14.6 µM | SK-MEL-5 17.5 µM | NCI-H460 19.3 µM | HL-60 24.9 µM | CAKI-1 22 µM | UO-31 17.8 µM | OVCAR-3 17.7 µM | Malme-3M 24.2 µM | KM12 19.2 µM | A549 36 µM | OVCAR-4 19.7 µM | MOLT-4 21.7 µM

C[C@@H]1OCC(O)C([C@H]2OC(c3ccccc3)=N[C@H]2CO)O1 (stereo partly specified)
inactive: HCT-116 > 100 µM | SK-MEL-2 > 100 µM | Hs-578T > 100 µM | HCC 2998 > 100 µM | HT-29 > 100 µM | IGROV-1 > 100 µM | NCI-H522 > 100 µM | SK-MEL-5 > 100 µM | NCI-H460 > 100 µM | HL-60 > 100 µM | CAKI-1 > 100 µM | UO-31 > 100 µM | OVCAR-3 > 100 µM | Malme-3M > 100 µM | KM12 > 100 µM | A549 > 100 µM | OVCAR-4 > 100 µM | MOLT-4 > 100 µM

C[n+]1c(-c2ccc(/C=N/NC(=O)C(=O)N/N=C/c3ccc(-c4cn5ccsc5[n+]4C)cc3)cc2)cn2ccsc21
inactive: HCT-116 92.5 µM | Hs-578T > 100 µM | HCC 2998 > 100 µM | HT-29 > 100 µM | IGROV-1 > 100 µM | NCI-H522 > 100 µM | SK-MEL-5 > 100 µM | NCI-H460 > 100 µM | HL-60 > 100 µM | UO-31 > 100 µM | KM12 > 100 µM | A549 > 100 µM | OVCAR-4 > 100 µM | MOLT-4 > 100 µM

O=C1O/C(=C\c2ccc(O)c(Br)c2)C(c2ccc(O)cc2)=C1Cl
inactive: HCT-116 34.1 µM | SK-MEL-2 40.1 µM | Hs-578T 37.1 µM | HCC 2998 39.1 µM | HT-29 51.9 µM | IGROV-1 55.6 µM | NCI-H522 26.5 µM | SK-MEL-5 22.4 µM | NCI-H460 26.6 µM | HL-60 43.6 µM | CAKI-1 37 µM | UO-31 48.2 µM | OVCAR-3 27.2 µM | Malme-3M 38.5 µM | KM12 34.2 µM | A549 36.1 µM | OVCAR-4 40 µM | MOLT-4 65.8 µM
